PubChem BioAssay (NCI)
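Test compounds were applied to cells in 96-well plates for 48 hours at 5 doses. TGI: total growth inhibition.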

Tests used:
Assay in all cases: NCI anticancer screen, dose series, 48 h
[1] = test system: 786-0 renal
[2] = test system: A549 NSCLC
[3] = test system: CAKI-1 renal
[4] = test system: CCRF-CEM leukemia
[5] = test system: HT29 colon
[6] = test system: LOX IMVI melanoma
[7] = test system: MCF7 breast
[8] = test system: MDA-N
[9] = test system: MOLT-4 leukemia
[10] = test system: NCI-H226 lung
[11] = test system: OVCAR-3 ovarian
[12] = test system: OVCAR-5 ovarian
[13] = test system: PC-3 prostate
[14] = test system: RPMI-8226 leukemia
[15] = test system: RXF 393 renal
[16] = test system: SF-268 CNS
[17] = test system: SK-MEL-28 melanoma
[18] = test system: SN12C renal
[19] = test system: SNB-19 CNS
[20] = test system: UACC-62 melanoma

SMILES | TGI [1] | TGI [2] | TGI [3] | TGI [4] | TGI [5] | TGI [6] | TGI [7] | TGI [8] | TGI [9] | TGI [10] | TGI [11] | TGI [12] | TGI [13] | TGI [14] | TGI [15] | TGI [16] | TGI [17] | TGI [18] | TGI [19] | TGI [20]
COC(=O)c1ccccc1/C=C1\Cc2c(ccc3c2CCC3)C1=O | > 100 µM | > 100 µM | > 100 µM | > 100 µM | > 100 µM | > 100 µM | > 100 µM | > 100 µM | > 100 µM | > 100 µM | > 100 µM | > 100 µM | > 100 µM | > 100 µM | > 100 µM | > 100 µM | > 100 µM | > 100 µM | > 100 µM | > 100 µM
O=C1CSC(c2ccccc2)N1c1nc2cc3sc(N4C(=O)CSC4c4ccccc4)nc3cc2s1 (stereo not given) | > 100 µM | > 100 µM | > 100 µM | > 84.1 µM | > 100 µM | > 100 µM | > 100 µM | > 100 µM | > 100 µM | > 96.6 µM | > 100 µM | > 100 µM | > 100 µM | > 100 µM | > 100 µM | > 100 µM | > 100 µM | > 100 µM | > 100 µM | > 100 µM
CC1=NN(c2ccccc2)C2(C1)C(Cl)C(=O)N2c1nc2ccccc2s1 (stereo not given) | > 100 µM | > 100 µM | > 100 µM | 48.8 µM | > 100 µM | 26.3 µM | > 100 µM | > 100 µM | 78.6 µM | 85.7 µM | 47.9 µM | > 100 µM | > 100 µM | 67.2 µM | 97.7 µM | > 100 µM | > 100 µM | > 100 µM | > 100 µM | > 100 µM
Cn1c(-c2cccs2)cc(-c2cccs2)c1-c1cccs1 | > 100 µM | > 100 µM | > 100 µM | > 100 µM | > 100 µM | > 100 µM | > 100 µM | > 100 µM | > 100 µM | > 100 µM | > 100 µM | > 100 µM | > 100 µM | > 100 µM | > 100 µM | > 100 µM | > 100 µM | > 100 µM | > 100 µM | > 100 µM
O=S(=O)(O)CCSSCCS(=O)(=O)O | > 1000 µM | > 1000 µM | > 1000 µM | > 1000 µM | > 1000 µM | > 1000 µM | > 1000 µM | > 1000 µM | > 1000 µM | > 1000 µM | > 1000 µM | > 1000 µM | > 1000 µM | > 1000 µM | > 1000 µM | > 1000 µM | > 1000 µM | > 1000 µM | > 1000 µM | > 1000 µM
CC[C@@]1(O)C(=O)OCc2c1cc1n(c2=O)Cc2c-1nc1ccccc1c2/C=N\NC(=O)C[n+]1ccccc1 | > 27.8 µM | > 100 µM | 20 µM | > 100 µM | > 66.3 µM | 6 µM | 16.2 µM | > 100 µM | 11.7 µM | > 29.7 µM | > 79.4 µM | > 65.7 µM | > 100 µM | > 100 µM | 2.79 µM | > 69.5 µM | > 100 µM | > 69 µM | 19.1 µM | 1.22 µM
CC(C)OC(=O)c1ccc(NCC2=CC(=O)C=CC2=O)cc1 | 28.5 µM | > 100 µM | 11.1 µM | 6.48 µM | 32.7 µM | 26.2 µM | 27.3 µM | 29.2 µM | 6.14 µM | > 100 µM | 21.6 µM | 38.9 µM | 25.7 µM | > 24.8 µM | 26.2 µM | 26.1 µM | 33 µM | 26.1 µM | > 100 µM | 31.4 µM
CC(=O)OCC1OC(NC(=S)Nn2c(=O)[nH]c3ccccc3c2=O)C(OC(C)=O)C(OC(C)=O)C1OC(C)=O (stereo not given) | > 100 µM | > 100 µM | > 100 µM | > 100 µM | > 100 µM | > 100 µM | > 100 µM | > 100 µM | > 100 µM | > 100 µM | > 100 µM | > 100 µM | > 100 µM | > 100 µM | > 100 µM | > 100 µM | > 100 µM | > 100 µM | > 100 µM | > 100 µM
CSC1=N/C(=C\c2ccc(C)cc2)C(=O)N1 | > 100 µM | > 100 µM | > 100 µM | > 100 µM | > 100 µM | > 100 µM | > 100 µM | > 100 µM | > 100 µM | > 100 µM | > 100 µM | > 100 µM | > 100 µM | > 100 µM | 96.2 µM | > 100 µM | > 100 µM | > 100 µM | > 100 µM | > 100 µM
CC1=NN(c2cccc(S(=O)(=O)O)c2)C2(C1)C(Cl)C(=O)N2c1nc2ccccc2s1 (stereo not given) | 11.7 µM | 26.4 µM | 8.48 µM | 3.67 µM | 22.2 µM | 3.77 µM | 25 µM | 27.7 µM | 11.8 µM | 22.2 µM | 9.26 µM | 28.1 µM | 22.9 µM | 4.47 µM | 22.8 µM | 22.9 µM | 36.1 µM | 19.9 µM | 27 µM | 19.1 µM
CC(NC(=O)OCc1ccccc1)NC(=O)OC(C)(C)C (stereo not given) | > 100 µM | > 100 µM | > 100 µM | > 100 µM | > 100 µM | > 100 µM | > 100 µM | > 100 µM | > 100 µM | > 100 µM | > 100 µM | > 100 µM | > 100 µM | > 100 µM | 84.3 µM | > 100 µM | > 100 µM | > 100 µM | > 100 µM | > 100 µM
COc1ccc(CNc2ccn(C3OC(CO)C(O)C3O)c(=O)n2)cc1 (stereo not given) | > 100 µM | > 100 µM | > 100 µM | > 100 µM | > 100 µM | > 100 µM | > 100 µM | > 100 µM | > 100 µM | > 100 µM | > 100 µM | > 100 µM | > 100 µM | > 100 µM | > 100 µM | > 100 µM | > 100 µM | > 100 µM | > 100 µM | > 100 µM
O=C1c2ccccc2-c2nnc(-c3ccc([N+](=O)[O-])cc3)cc21 | > 10 µM | > 10 µM | > 10 µM | > 10 µM | > 10 µM | > 10 µM | > 10 µM | > 10 µM | > 10 µM | > 10 µM | > 10 µM | > 10 µM | > 10 µM | > 10 µM | > 10 µM | > 10 µM | > 10 µM | > 10 µM | > 10 µM | > 10 µM
COc1ccc(CC2Cc3ccccc3CCN2)cc1OC (stereo not given) | > 50 µM | > 50 µM | > 50 µM | > 50 µM | > 50 µM | > 50 µM | > 50 µM | > 50 µM | > 50 µM | > 50 µM | > 50 µM | > 50 µM | > 50 µM | > 50 µM | > 50 µM | > 50 µM | > 50 µM | > 50 µM | > 50 µM | > 50 µM
COc1nn(Cc2ccccn2)c2ccc([N+](=O)[O-])cc12 | > 100 µM | > 100 µM | > 100 µM | > 100 µM | > 100 µM | > 100 µM | > 100 µM | 95.5 µM | > 100 µM | > 100 µM | > 100 µM | > 100 µM | > 100 µM | > 100 µM | > 100 µM | > 100 µM | > 100 µM | > 100 µM | > 100 µM | > 100 µM
CCOC(=O)CC[C@H](N)C(=O)N[C@@H](Cc1ccc(N(CCCl)CCCl)cc1)C(=O)OCC | 2.51 µM | > 48.9 µM | 4.39 µM | 4.5 µM | 4.19 µM | 2.94 µM | 15.5 µM | 2.57 µM | 3.61 µM | 28.8 µM | 1.82 µM | 6.78 µM | 7.46 µM | 28.4 µM | 2.14 µM | 7.07 µM | 2.38 µM | 9.22 µM | 18.1 µM | 1.84 µM
CCCN(CCc1ccc(-c2ccccc2)cc1)CCc1ccc2n[nH]nc2c1 | 24.9 µM | 30 µM | 25.5 µM | 19.4 µM | 23.6 µM | 28.6 µM | > 51.2 µM | 19.1 µM | 19.1 µM | 36.7 µM | 25.8 µM | 33.6 µM | 22.1 µM | 28.1 µM | 33.1 µM | 48.7 µM | 13.6 µM | 27.4 µM | 26.8 µM | 24 µM
Nc1cc(Cl)cc2cc(Cl)cnc12 | > 100 µM | > 100 µM | > 100 µM | > 100 µM | > 100 µM | > 100 µM | > 100 µM | > 100 µM | > 100 µM | > 100 µM | > 100 µM | > 100 µM | > 100 µM | > 100 µM | > 100 µM | > 100 µM | > 100 µM | > 100 µM | > 100 µM | > 100 µM
CN1CCC23c4c5ccc(Oc6nnnn6-c6ccccc6)c4OC2c2[nH]c4ccccc4c2CC3(O)C1C5 (stereo not given) | 3.33 µM | 13.1 µM | 4.77 µM | 4.19 µM | 5.3 µM | 3.75 µM | 5.12 µM | 3.26 µM | 5.33 µM | 27.6 µM | 22.5 µM | 32.6 µM | 15 µM | 6.06 µM | 5.67 µM | 21.2 µM | 4.73 µM | 8.67 µM | 22.4 µM | 3.52 µM
CCSc1nnc(Sc2c3ccccc3nc3ccccc23)s1 | 7.54 µM | > 100 µM | 15.5 µM | > 100 µM | > 55.6 µM | 23.7 µM | 17.5 µM | 25.1 µM | 6.25 µM | > 78.9 µM | 29.4 µM | 43.4 µM | 46.7 µM | > 28 µM | 35.3 µM | > 56.4 µM | > 59.1 µM | 59.9 µM | > 84.5 µM | 31.6 µM
O=C(Nc1ccc(Cl)cc1)c1cc(S(=O)(=O)Nc2n[nH]c(Nc3ccc4ccccc4c3)n2)c(SSc2cc(Cl)c(C(=O)Nc3ccc(Cl)cc3)cc2S(=O)(=O)Nc2n[nH]c(Nc3ccc4ccccc4c3)n2)cc1Cl | > 94.3 µM | > 100 µM | 38 µM | 43.6 µM | 38.2 µM | 37.8 µM | > 64 µM | > 84.2 µM | 42.3 µM | 54.4 µM | 59.5 µM | 50.5 µM | 69.1 µM | > 74.7 µM | 79.9 µM | > 100 µM | 46.9 µM | 59.2 µM | 50.4 µM | 51.7 µM
CC[C@]12C=CCN3CC[C@@]4(c5cc(Br)c(OC)c([N+](=O)[O-])c5N(C)[C@H]4[C@@](O)(C(=O)OC)[C@@H]1OC(C)=O)[C@@H]32 | > 100 µM | > 100 µM | > 100 µM | > 100 µM | > 100 µM | > 100 µM | > 100 µM | > 100 µM | 70.6 µM | > 100 µM | > 100 µM | > 100 µM | > 100 µM | > 100 µM | > 100 µM | > 100 µM | > 100 µM | > 100 µM | > 100 µM | > 100 µM
O=C1CC(Br)c2c(Br)sc(Br)c21 (stereo not given) | 29.9 µM | > 100 µM | 38.8 µM | 9.42 µM | 30.4 µM | 27.4 µM | 32.4 µM | 28.8 µM | 25.5 µM | 54.6 µM | 32.9 µM | 31.9 µM | 39.4 µM | 28 µM | 32.9 µM | 62.4 µM | > 100 µM | 29 µM | 76.2 µM | 30.8 µM
